In patent US10100076B2, “Modified nucleosides for the treatment of viral infections and abnormal cellular proliferation” (priority 2000, dated 2018):

system: rRNA (host RNA polymerase I product); assay: rRNA ΔCt in Huh7 replicon cells (effect on host RNA polymerases); conditions: Table 24, average of n
From the text: In a typical setting, a compound might reduce both the host RNA polymerase activity and the replicon-encoded polymerase activity. Therefore, quantification of rRNA (or any other host RNA polymerase I product) or beta-actin mRNA (or any other host RNA polymerase II) and comparison with RNA levels of the no-drug control is a relative measurement of the effect of the test compound on host RNA polymerases.
With the availability of both the HCV ΔCt data and the rRNA ΔCt, a specificity parameter can be introduced. This parameter is obtained by subtracting both ΔCt values from each other.
Note: test concentration or dose not given here.

| Compound | Ave. rRNA ΔCt |
| --- | --- |
| Nc1nc(=O)n(C2OC(CO)C(Br)C2O)cc1F [β-D-AT] | 3.07 |
| Nc1ccn([C@@H]2O[C@H](CO)[C@@H](O)[C@@H]2Cl)c(=O)n1 [β-D-AN] | 2.11 |
| O=C(Nc1nc(=O)n([C@H]2C=C[C@@H](CO)O2)cc1F)c1ccccc1[N+](=O)[O-] [β-D-EB] | 1.42 |
| O=c1nc2n(cc1F)[C@@H]1O[C@H](CO2)[C@@H](O)[C@H]1O [β-D-LA] | 4.10 |
| Nc1nc(SSc2nc(N)nc3c2ncn3[C@@H]2O[C@H](CO)[C@@H](O)[C@H]2O)c2ncn([C@@H]3O[C@H](CO)[C@@H](O)[C@H]3O)c2n1 [β-D-QA] | 3.81 |

system: HCV replicon; assay: HCV replicon system in Huh7 cells, replicon RNA by Q-RT-PCR (HCV ΔCt, ΔΔCt); assay type: cell-based, hepatitis C virus; conditions: Table 24; HCV RNA ΔCt minus rRNA ΔCt

| Compound | Ave. ΔΔCt |
| --- | --- |
| Nc1nc(=O)n(C2OC(CO)C(Br)C2O)cc1F [β-D-AT] | 0.64 |
| Nc1ccn([C@@H]2O[C@H](CO)[C@@H](O)[C@@H]2Cl)c(=O)n1 [β-D-AN] | 1.22 |
| O=C(Nc1nc(=O)n([C@H]2C=C[C@@H](CO)O2)cc1F)c1ccccc1[N+](=O)[O-] [β-D-EB] | 1.90 |
| O=c1nc2n(cc1F)[C@@H]1O[C@H](CO2)[C@@H](O)[C@H]1O [β-D-LA] | 0.89 |
| Nc1nc(SSc2nc(N)nc3c2ncn3[C@@H]2O[C@H](CO)[C@@H](O)[C@H]2O)c2ncn([C@@H]3O[C@H](CO)[C@@H](O)[C@H]3O)c2n1 [β-D-QA] | −0.89 |

same assay, conditions: Table 24; HCV replicon in Huh7 cells; average of n

| Compound | Ave. HCV RNA ΔCt |
| --- | --- |
| Nc1nc(=O)n(C2OC(CO)C(Br)C2O)cc1F [β-D-AT] | 3.71 |
| Nc1ccn([C@@H]2O[C@H](CO)[C@@H](O)[C@@H]2Cl)c(=O)n1 [β-D-AN] | 3.33 |
| O=C(Nc1nc(=O)n([C@H]2C=C[C@@H](CO)O2)cc1F)c1ccccc1[N+](=O)[O-] [β-D-EB] | 3.33 |
| O=c1nc2n(cc1F)[C@@H]1O[C@H](CO2)[C@@H](O)[C@H]1O [β-D-LA] | 3.85 |
| Nc1nc(SSc2nc(N)nc3c2ncn3[C@@H]2O[C@H](CO)[C@@H](O)[C@H]2O)c2ncn([C@@H]3O[C@H](CO)[C@@H](O)[C@H]3O)c2n1 [β-D-QA] | 2.91 |

same assay, conditions: Table 25; HCV RNA ΔCt minus rDNA ΔCt

| Compound | average ΔΔCt |
| --- | --- |
| Nc1nc(=O)n(C2OC(CO)C(Br)C2O)cc1F [β-D-AT] | 1.43 |
| Nc1ccn([C@@H]2O[C@H](CO)[C@@H](O)[C@@H]2Cl)c(=O)n1 [β-D-AN] | 1.88 |
| O=C(Nc1nc(=O)n([C@H]2C=C[C@@H](CO)O2)cc1F)c1ccccc1[N+](=O)[O-] [β-D-EB] | 2.37 |
| O=c1nc2n(cc1F)[C@@H]1O[C@H](CO2)[C@@H](O)[C@H]1O [β-D-LA] | 1.98 |
| Nc1nc(SSc2nc(N)nc3c2ncn3[C@@H]2O[C@H](CO)[C@@H](O)[C@H]2O)c2ncn([C@@H]3O[C@H](CO)[C@@H](O)[C@H]3O)c2n1 [β-D-QA] | 2.55 |

same assay, conditions: Table 25; HCV replicon in Huh7 cells; average of N

| Compound | Ave. HCV RNA ΔCt |
| --- | --- |
| Nc1nc(=O)n(C2OC(CO)C(Br)C2O)cc1F [β-D-AT] | 3.81 |
| Nc1ccn([C@@H]2O[C@H](CO)[C@@H](O)[C@@H]2Cl)c(=O)n1 [β-D-AN] | 3.86 |
| O=C(Nc1nc(=O)n([C@H]2C=C[C@@H](CO)O2)cc1F)c1ccccc1[N+](=O)[O-] [β-D-EB] | 3.33 |
| O=c1nc2n(cc1F)[C@@H]1O[C@H](CO2)[C@@H](O)[C@H]1O [β-D-LA] | 3.54 |
| Nc1nc(SSc2nc(N)nc3c2ncn3[C@@H]2O[C@H](CO)[C@@H](O)[C@H]2O)c2ncn([C@@H]3O[C@H](CO)[C@@H](O)[C@H]3O)c2n1 [β-D-QA] | 4.85 |

system: rDNA (host DNA); assay: rDNA ΔCt in Huh7 replicon cells (effect on cellular DNA polymerases); conditions: Table 25, average of N
From the text: In another typical setting, a compound might reduce the host RNA polymerase activity, but not the host DNA polymerase activity. Therefore, quantification of rDNA or beta-actin DNA (or any other host DNA fragment) and comparison with DNA levels of the no-drug control is a relative measurement of the inhibitory effect of the test compound on cellular DNA polymerases.
With the availability of both the HCV ΔCt data and the rDNA ΔCt, a specificity parameter can be introduced. This parameter is obtained by subtracting both ΔCt values from each other.

| Compound | Ave. rDNA ΔCt |
| --- | --- |
| Nc1nc(=O)n(C2OC(CO)C(Br)C2O)cc1F [β-D-AT] | 2.43 |
| Nc1ccn([C@@H]2O[C@H](CO)[C@@H](O)[C@@H]2Cl)c(=O)n1 [β-D-AN] | 2.53 |
| O=C(Nc1nc(=O)n([C@H]2C=C[C@@H](CO)O2)cc1F)c1ccccc1[N+](=O)[O-] [β-D-EB] | 0.96 |
| O=c1nc2n(cc1F)[C@@H]1O[C@H](CO2)[C@@H](O)[C@H]1O [β-D-LA] | 1.56 |
| Nc1nc(SSc2nc(N)nc3c2ncn3[C@@H]2O[C@H](CO)[C@@H](O)[C@H]2O)c2ncn([C@@H]3O[C@H](CO)[C@@H](O)[C@H]3O)c2n1 [β-D-QA] | 2.30 |
